Test results taken from patent US10696615B2, “Prenylated hydroxystilbenes” (The University of Sydney, priority 2011, dated 2020).

Key:
[1] = DPPH scavenging activity assay; details: FIG. 10, result in words
Method: The (1,1-diphenyl-2-picrylhydrazyl) DPPH assay is commonly used to test free radical scavenging ability of a compound or extracts of natural products by measurement of the reduction of DPPH* radicals at 517 nm. […] Upon reduction by an antioxidant or radical scavenger, the absorption disappears and the resulting decolorization by scavenging the radical is stoichiometric with respect to the number of electrons taken up (DPPH*+AH→DPPH:H+A*). The DPPH assay was carried out in a stepwise procedure as described below.
A methanolic solution of DPPH (0.1 mM) was stirred in a dark container at room temperature for 20 min. The solution was scanned between 400-750 nm to obtain a maximum wavelength (λmax, ˜510 nm). The concentration of the DPPH solution was adjusted with methanol to result in a maximum absorbance of approximately 1.0. Test samples at different concentrations and standard antioxidant solution (0.05 mL) were added to 0.95 mL of methanolic DPPH solution in a cuvette. Final concentrations of the test samples were 0.1, 1, 10, 50, 100 and 200 μM. The mixtures were shaken vigorously and allowed to stand in the dark for 30 min at room temperature. Absorbance of the resulting solution was measured at the maximum wavelength (˜510 nm). A decrease in absorbance indicated a free radical scavenging effect of the test samples. […]

CDK4/CyclinD3 = CDK4/CyclinD3 (Homo sapiens, UniProt P11802); test: Kinase activity assay; assay type: biochemical; details: listed = inhibited more than 60%
Sequence of CDK4/CyclinD3 (P11802 whole entry, species assumed): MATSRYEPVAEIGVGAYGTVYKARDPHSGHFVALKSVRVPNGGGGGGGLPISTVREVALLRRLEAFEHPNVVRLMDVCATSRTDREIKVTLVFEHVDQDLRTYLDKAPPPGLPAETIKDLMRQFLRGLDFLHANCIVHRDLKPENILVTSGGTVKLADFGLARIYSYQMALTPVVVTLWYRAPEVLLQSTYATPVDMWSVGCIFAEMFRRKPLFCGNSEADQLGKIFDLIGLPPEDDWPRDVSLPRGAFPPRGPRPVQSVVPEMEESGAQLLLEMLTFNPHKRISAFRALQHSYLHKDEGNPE
Sequence of CDK4/CyclinD3 (P30281 whole entry partner, species assumed): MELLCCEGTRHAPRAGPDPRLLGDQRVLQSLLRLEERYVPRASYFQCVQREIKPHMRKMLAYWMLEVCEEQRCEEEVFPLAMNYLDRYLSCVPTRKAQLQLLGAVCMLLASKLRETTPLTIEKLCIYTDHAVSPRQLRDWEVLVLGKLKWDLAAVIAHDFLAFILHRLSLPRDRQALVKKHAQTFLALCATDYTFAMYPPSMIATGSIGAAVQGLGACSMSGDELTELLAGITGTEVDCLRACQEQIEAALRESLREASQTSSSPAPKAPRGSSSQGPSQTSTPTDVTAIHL
Method: (§1) • Kinase-Glo(Plus)/ADP-Gloassay buffer 25 mMHEPES, 10 mMMgCl2, 0.01% Triton X-100, 100 μg/mLBSA, 2.5 mMDTT, pH7.4. • Caliper assay buffer 100 mMHEPES, 10 mMMgCl2, 100 μl/L Brij35 (30%), 1 mMDTT, pH7.4. Assay Substrates • MBP protein, UnactiveMEK1, Rbprotein were purchased from SignalChem. Poly(glu:tyr)(4:1) was purchased from Sigma. PIP2 was purchased from Cayman. Peptide substrates were synthesized in HD Biosciences, China. ATP was purchased from Sigma. KinaseGloPlus reagent, KinaseGloreagent and ADP Gloreagent were purchased from Promega Assay Procedure—Caliper Format
(§2) Mix Kinases, substrate, ATP and compound in 96-well assay plate, total volume is 50 μL. Incubate assay plate at 30° C. for 1 hour. Stop reaction by adding 20 μL of 35 mM EDTA and transfer 26 μL stopped reaction to 384-well assay plate. Read the assay plate on the plate reader.
(§3) Mix Kinases, substrate, ATP and compound in 384-well assay plate, total volume is 10 μl. Incubate assay plate at 30° C. for 1 hour. Add 10 μl/well of ADP GloReagent to the assay plate, incubate at 27° C. for 40 min.
(§4) Add 20 μl/well Detection Reagent to the assay plate, incubate at 27° C. for 30 min. Read the assay plate on the plate reader
(§5) Mix Kinase, substrate, ATP and compound in 384-well assay plate, total volume is 10 μl. Incubate assay plate at 30° C. for 1 hour. Add 10 μl/well KinaseGlo(Plus) reagent to the reaction mixture, and then incubate at 27° C. for 20 min. Read the assay plate on plate reader. • Hundred percent effect was performed without compound and enzyme, but containing ATP and substrate. • Zero percent effect was carried out without compound, but containing ATP, substrate and enzyme. • SB202190 is reference compounds for kinase p38β; Staurosporine(STSP) is reference compound for the remaining kinases. Results

[2] = Acute toxicity study (maximum tolerated dose); assay type: in vivo; details: for Death days / Survivor/Total day 15: IP, single dose
Method: A single mouse is given a single IP injection of 400 mg/kg; a second mouse receives a dose of 200 mg/kg IP and a third mouse receives a single dose of 100 mg/kg IP. The mice are observed for a period of 2 weeks. They are sacrificed if they lose more than 20% of their body weight or if there are other signs of significant toxicity. If all 3 mice must be sacrificed, then the next 3 dose levels (50, 25, 12.5 mg/kg) are tested in a similar way. This process is repeated until a tolerated dose is found. This dose is then designated the maximum tolerated dose (MTD) and is used to calculate the amount of material given to experimental mice during anti-tumor testing. The mice are allowed ad libitum feed and water. Drug was dissolved in 100% DMSO at concentration of 200 mg/mL.

CDK1/CyclinB = CDK1/CyclinB (Homo sapiens, UniProt P06493); test: Kinase activity assay; assay type: biochemical; details: listed = inhibited more than 60%
Sequence of CDK1/CyclinB (P06493 whole entry, species assumed): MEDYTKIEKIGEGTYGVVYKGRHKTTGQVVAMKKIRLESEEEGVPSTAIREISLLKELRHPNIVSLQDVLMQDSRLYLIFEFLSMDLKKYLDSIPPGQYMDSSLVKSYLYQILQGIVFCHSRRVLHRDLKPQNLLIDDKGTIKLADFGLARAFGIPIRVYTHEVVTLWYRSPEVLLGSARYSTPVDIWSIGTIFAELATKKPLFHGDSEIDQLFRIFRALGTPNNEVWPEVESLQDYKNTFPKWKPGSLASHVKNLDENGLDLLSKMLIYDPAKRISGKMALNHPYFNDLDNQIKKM
Sequence of CDK1/CyclinB (P14635 whole entry partner, species assumed): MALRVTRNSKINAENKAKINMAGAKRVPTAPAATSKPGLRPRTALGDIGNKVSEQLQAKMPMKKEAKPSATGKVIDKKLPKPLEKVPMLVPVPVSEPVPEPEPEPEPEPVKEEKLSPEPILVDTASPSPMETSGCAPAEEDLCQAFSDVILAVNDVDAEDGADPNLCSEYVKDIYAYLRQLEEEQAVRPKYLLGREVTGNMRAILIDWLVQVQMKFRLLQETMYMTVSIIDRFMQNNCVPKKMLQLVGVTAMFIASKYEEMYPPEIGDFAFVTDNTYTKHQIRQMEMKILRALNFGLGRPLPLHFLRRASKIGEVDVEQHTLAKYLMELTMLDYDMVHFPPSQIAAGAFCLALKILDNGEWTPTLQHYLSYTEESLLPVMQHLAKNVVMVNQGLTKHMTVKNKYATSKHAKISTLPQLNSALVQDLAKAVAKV
Method: as §1, §2, §3, §4, §5

FLT1 = FLT1 (Homo sapiens, UniProt P17948); test: Kinase activity assay; assay type: biochemical; details: listed = inhibited more than 60%
Sequence of FLT1 (P17948 27-1338, species assumed): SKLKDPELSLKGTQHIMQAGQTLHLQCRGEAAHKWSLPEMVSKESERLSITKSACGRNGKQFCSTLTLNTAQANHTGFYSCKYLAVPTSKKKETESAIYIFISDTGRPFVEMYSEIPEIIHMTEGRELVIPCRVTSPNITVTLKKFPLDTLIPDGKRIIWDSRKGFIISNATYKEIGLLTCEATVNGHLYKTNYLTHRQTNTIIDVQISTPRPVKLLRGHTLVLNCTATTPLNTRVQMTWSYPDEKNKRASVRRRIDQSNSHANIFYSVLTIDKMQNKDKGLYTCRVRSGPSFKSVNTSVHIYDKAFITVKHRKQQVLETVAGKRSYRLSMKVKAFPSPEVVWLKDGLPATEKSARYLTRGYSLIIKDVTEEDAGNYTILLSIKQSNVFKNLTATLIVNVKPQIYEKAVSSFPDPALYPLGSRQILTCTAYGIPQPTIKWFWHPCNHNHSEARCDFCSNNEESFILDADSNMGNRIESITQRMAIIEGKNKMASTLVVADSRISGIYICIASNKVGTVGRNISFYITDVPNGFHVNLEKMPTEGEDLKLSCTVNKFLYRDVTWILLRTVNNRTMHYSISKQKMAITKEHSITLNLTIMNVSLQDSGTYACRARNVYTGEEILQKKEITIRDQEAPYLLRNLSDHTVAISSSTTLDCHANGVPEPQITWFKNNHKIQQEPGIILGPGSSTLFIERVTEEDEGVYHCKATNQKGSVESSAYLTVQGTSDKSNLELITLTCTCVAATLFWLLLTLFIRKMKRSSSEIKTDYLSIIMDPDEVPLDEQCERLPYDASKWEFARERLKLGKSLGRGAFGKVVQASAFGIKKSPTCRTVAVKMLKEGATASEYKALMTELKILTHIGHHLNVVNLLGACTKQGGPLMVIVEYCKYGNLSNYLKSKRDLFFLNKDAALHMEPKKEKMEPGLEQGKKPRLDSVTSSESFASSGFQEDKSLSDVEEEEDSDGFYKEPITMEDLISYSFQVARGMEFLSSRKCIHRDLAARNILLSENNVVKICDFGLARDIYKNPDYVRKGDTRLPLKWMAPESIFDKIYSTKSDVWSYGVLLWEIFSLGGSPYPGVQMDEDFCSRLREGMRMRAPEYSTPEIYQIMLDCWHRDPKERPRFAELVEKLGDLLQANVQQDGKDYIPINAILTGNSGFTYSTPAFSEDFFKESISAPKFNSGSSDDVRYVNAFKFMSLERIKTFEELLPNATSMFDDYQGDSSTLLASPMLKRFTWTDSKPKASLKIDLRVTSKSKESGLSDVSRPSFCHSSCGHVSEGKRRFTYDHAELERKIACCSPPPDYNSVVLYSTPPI
Method: as §1, §2, §3, §4, §5

KDR = KDR (Homo sapiens, UniProt P35968); test: Kinase activity assay; assay type: biochemical; details: listed = inhibited more than 60%
Sequence of KDR (P35968 20-1356, species assumed): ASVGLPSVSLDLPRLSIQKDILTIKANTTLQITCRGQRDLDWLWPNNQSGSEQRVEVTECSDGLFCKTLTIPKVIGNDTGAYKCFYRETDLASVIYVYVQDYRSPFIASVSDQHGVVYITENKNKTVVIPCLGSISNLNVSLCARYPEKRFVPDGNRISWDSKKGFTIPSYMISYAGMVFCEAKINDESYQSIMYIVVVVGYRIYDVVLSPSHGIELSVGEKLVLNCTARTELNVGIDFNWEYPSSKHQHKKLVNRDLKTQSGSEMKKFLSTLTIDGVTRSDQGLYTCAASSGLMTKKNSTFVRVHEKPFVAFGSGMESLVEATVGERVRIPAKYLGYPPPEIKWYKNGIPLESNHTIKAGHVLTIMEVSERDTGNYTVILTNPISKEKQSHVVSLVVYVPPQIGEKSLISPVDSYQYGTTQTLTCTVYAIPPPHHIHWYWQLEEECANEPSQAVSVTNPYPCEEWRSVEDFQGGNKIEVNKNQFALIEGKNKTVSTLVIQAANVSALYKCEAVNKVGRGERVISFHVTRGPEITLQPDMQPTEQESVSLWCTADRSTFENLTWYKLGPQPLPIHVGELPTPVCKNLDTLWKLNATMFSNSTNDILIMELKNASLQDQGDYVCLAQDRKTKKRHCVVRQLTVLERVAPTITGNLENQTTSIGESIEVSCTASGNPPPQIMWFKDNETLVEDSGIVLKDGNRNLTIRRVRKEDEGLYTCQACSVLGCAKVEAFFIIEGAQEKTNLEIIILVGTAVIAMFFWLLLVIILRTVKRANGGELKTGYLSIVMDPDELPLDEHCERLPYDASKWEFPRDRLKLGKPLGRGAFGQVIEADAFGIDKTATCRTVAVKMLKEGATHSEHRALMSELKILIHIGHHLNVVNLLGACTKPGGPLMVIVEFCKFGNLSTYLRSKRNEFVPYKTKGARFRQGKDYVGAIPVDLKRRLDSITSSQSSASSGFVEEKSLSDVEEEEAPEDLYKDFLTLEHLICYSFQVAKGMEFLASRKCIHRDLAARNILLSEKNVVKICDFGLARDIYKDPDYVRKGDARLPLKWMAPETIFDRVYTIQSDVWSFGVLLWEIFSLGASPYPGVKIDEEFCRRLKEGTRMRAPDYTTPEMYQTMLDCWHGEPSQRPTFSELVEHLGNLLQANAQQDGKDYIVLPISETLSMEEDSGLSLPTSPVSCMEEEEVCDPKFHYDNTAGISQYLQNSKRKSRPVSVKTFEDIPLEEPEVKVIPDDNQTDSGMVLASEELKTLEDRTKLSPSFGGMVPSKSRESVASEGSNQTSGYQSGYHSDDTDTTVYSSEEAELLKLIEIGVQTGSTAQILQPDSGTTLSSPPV
Method: as §1, §2, §3, §4, §5

CC(C)=CCc1c(O)cc(/C=C/c2ccc(O)c(O)c2)c(CC=C(C)C)c1O [USYDS7, (E)-2,4-di(3-methyl-2-buten-1-yl)-3,3′,4′,5-tetrahydroxystilbene]
effect on free radical scavenging [1]: strong effect

COc1cc(/C=C/c2cc(O)cc(OC)c2CC=C(C)C)ccc1O [USYDS1, (E)-2-(3-methyl-2-buten-1-yl)-4′,5-dihydroxy-3,3′-dimethoxystilbene]
Kinases that inhibited more than 60% (CDK4/CyclinD3): CDK4/CyclinD3 | MTD at 2 weeks ([2]; in vivo, mouse, single IP injection, observed 2 weeks): 100 mg/kg | Death days ([2]; mouse, 100 mg/kg/dose): None | Survivor/Total day 15 ([2]; mouse, 100 mg/kg/dose): 1/1 | Death days ([2]; mouse, 200 mg/kg/dose): 1 | Survivor/Total day 15 ([2]; mouse, 200 mg/kg/dose): 0/1 | Death days ([2]; mouse, 400 mg/kg/dose): 1 | Survivor/Total day 15 ([2]; mouse, 400 mg/kg/dose): 0/1 | mammalian toxicity ([2]; result in words): low mammalian toxicity

COc1cc(/C=C/c2cc(O)cc(O)c2CC=C(C)C)ccc1O [USYDS10, (E)-2-(3-methyl-2-buten-1-yl)-3,4′,5-trihydroxy-3′-methoxystilbene]
Kinases that inhibited more than 60% (CDK1/CyclinB): CDK1/CyclinB | Kinases that inhibited more than 60% (FLT1): FLT1 | Kinases that inhibited more than 60% (KDR): KDR
